Test results: patent US10159659B2, “Predicting response to cancer therapy” (BIONOMICS LIMITED, priority 2014, dated 2018)

Key:
[1] = test system: Metastatic Clear Cell Renal Cell Carcinoma; assay: Disruptor-1 trial: BNC105P in combination with everolimus, progression free survival; format: in vivo, human; conditions: all patients; 10 mg oral everolimus daily, with or without 16 mg/m^2 BNC105P i.v. on days 1 and 8 of 21 day cycle; FIG. 2
Description: A control group of patients received everolimus alone.
The medical histories of patients were obtained prior to commencement of the study.
All patients in the study were followed for disease progression and survival. Prior to commencing treatment, patients enrolled in the study were subject to disease assessment including: CT of chest, abdomen and pelvis; CT of the head or brain MRI; bone scan; echocardiography (ECHO) or multiple gated acquisition scan (MUGA). At every 3 cycles of treatment, CT scans of chest, abdomen and pelvis, and bone scans were performed to determine disease progression.
Time to disease progression was determined as a measurement from the start of the treatment until the criteria for disease progression is met (or death occurs), taking as reference the smallest measurements recorded since the treatment started. […]

[2] = test system: tumour endothelial cells (activated) and normal endothelial cells (quiescent); assay: Potency against activated versus quiescent endothelial cells; format: cell-based
[3] = Maximum tolerated dose of BNC105P by intravenous infusion in patients; format: in vivo, human; conditions: intravenous infusion over 10 minutes, days 1 and 8 of 21 day cycle, with 10 mg oral everolimus daily
Protocol: Patients in the BNC105P in combination with everolimus study group (the “combination arm”) were administered 10 mg oral everolimus daily. On days 1 and 8 of the 21 day cycle period, the patients were administered 16 mg/m^2 BNC105P, which had been determined to be the maximum tolerated dose, by intravenous infusion over a 10 minute period (FIG. 1). Treatment was continued until disease progressed, intolerable toxicity became apparent, or until consent was withdrawn. A control group of patients were administered with everolimus alone.

tubulin = assay: Tubulin polymerisation inhibition; format: biochemical

In the case of `CO[C@H]1C[C@@H]2CC[C@@H](C)[C@@](O)(O2)C(=O)C(=O)N2CCCC[C@H]2C(=O)O[C@H]([C@H](C)C[C@@H]2CC[C@@H](OCCO)[C@H](OC)C2)CC(=O)[C@H](C)/C=C(\C)[C@@H](O)[C@@H](OC)C(=O)[C@H](C)C[C@H](C)/C=C/C=C/C=C/1C` [everolimus], the “patients free of disease progression at 6 months” value [1] is reported as 20 patients.
With `COc1ccc(/C=C\c2cc(OC)c(OC)c(OC)c2)cc1O` [Combretastatin A4, reference compound] the “selectivity between activated (tumour) and quiescent (normal) endothelial cells (in words)” value [2] was “equally potent against quiescent and activated endothelial cells”.
For `COc1cc(C(=O)c2c(C)oc3c(OP(=O)([O-])[O-])c(OC)ccc23)cc(OC)c1OC.[Na+].[Na+]` [BNC105P, disodium [6-methoxy-2-methyl-3-(3,4,5-trimethoxybenzoyl)-1-benzofuran-7-yl] phosphate], the maximum tolerated dose [3] was 16 mg/m^2.
With `COc1cc(C(=O)c2c(C)oc3c(O)c(OC)ccc23)cc(OC)c1OC` [formula III, 2-methyl-7-hydroxy-3-(3,4,5-trimethoxybenzoyl)-6-methoxybenzofuran] the “tubulin polymerisation inhibition (in words)” value (tubulin) was “potent tubulin polymerisation inhibitors” and the “selectivity between activated (tumour) and quiescent (normal) endothelial cells (in words)” value [2] was “show selectivity towards tumor endothelial cells (activated) over normal endothelial cells (quiescent)”.
